The values below come from PubChem BioAssay (NCI).

Structures are written as SMILES.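 Assay format: 96-well plates, 48-hour exposure. The concentration for full growth arrest is given as TGI.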 A value given as a limit tells only on which side of the number the result lay.

The first assay has as its system CAKI-1 renal. Description: inhibition of tumour cell growth, NCI panel, 48 h.
The molecule `C=CC1(C)CCC2C(=CCC3C2(C)CC(O)C(O)C3(C)COC2OC(C(=O)O)C(O)C(O)C2O)C1` (stereo unspecified) (tested in a mixture with another compound) came in with a TGI above 100 µM.
The same measure, in the same setting: to `C=C1C(=O)O[C@@H]2C(=O)[C@@H](C)CCC/C(C)=C/CC[C@@]3(C)O[C@@H]3C[C@@H]12` belongs 37.5 µM; to `Nc1nc(SCCc2ccccc2)c2[nH]cnc2n1`, above 100 µM; to `Cc1ccccc1C(=O)N1CCc2c([nH]c3ccccc23)C1`, 79.5 µM.
The same measure, in the same setting: then `Cc1nc2n(c1/C=C1/C(=O)Nc3cccc(Cl)c31)CCS2`, with above 100 µM.
As for `O=C1CC(NC(=O)C(F)(F)F)c2c(Br)sc(N3CCNCC3)c21` (stereo unspecified), the TGI was above 100 µM.

For a further assay, the system named is UACC-62 melanoma. Description: inhibition of tumour cell growth, NCI panel, 48 h.
In turn, `CC(=O)NC(Cc1ccc(O)cc1)C(=O)O` (stereo unspecified) gave a TGI above 100 µM.
Same read-out and setting: then `O=C1CSC(c2ccc(Cl)cc2)N1c1ccc(Oc2ccc(Cl)cc2)c(Cl)c1` (stereo unspecified), with 28.8 µM; and `COC(=O)C([C@H](NC1(c2ccccc2)c2ccccc2-c2ccccc21)C(=O)OC)N(NC(=O)OCc1ccccc1)C(=O)OCc1ccccc1` (mixture of isomers), with above 100 µM; and `CC[C@@H]1CC[C@@H]2[C@H](CC[C@]3(C)[C@@H](OC(C)=O)CC[C@@H]23)[C@H]1COC(C)=O`, with 88 µM.
The same measure, in the same setting: then `Cc1ccc(N=NC(=Nc2ccccc2)c2ccc(N(CCC#N)CCC#N)cc2)cc1`, with 58.9 µM; and `O=c1ccc(-c2ccccc2)n[nH]1`, with above 100 µM.
Still for that read-out and setting: to `CC(=O)O[C@@H]1[C@H](C(C)C)[C@@H](OC(C)=O)C/C(C)=C/CC[C@]2(C)O[C@@H]12` belongs above 100 µM.
`CN1CCc2cc(N)cc3c2C1Cc1ccc(O)c(O)c1-3` (stereo unspecified) gave a TGI of 70.4 µM.
The same measure, in the same setting: to `CC(C)=CCc1c2c(c3occ(-c4ccc(O)cc4)c(=O)c3c1O)CC(C(C)(C)O)O2` (stereo unspecified) belongs 30 µM.
The same measure, in the same setting: to `CC1(C)N=[N+]([O-])C1(C)C` belongs above 100 µM; to `COc1ccc(C2CC(c3c(O)ccc4ccccc34)=NN2C(C)=O)cc1OC` (stereo unspecified), 29.7 µM.
Same read-out and setting: to `C1CN(c2nc3c(nnc4nc(N5CCOCC5)sc43)s2)CCO1` belongs above 100 µM; to `COc1cc2nc3n(c(=O)c2cc1OC)-c1ccc([N+](=O)[O-])cc1C3=O`, above 100 µM.
In turn, `NC(N)=N/N=C/c1c(-c2ccc(N)cc2)nc2sccn12` showed a TGI above 100 µM.
Same read-out and setting: then `COc1cc(Br)cc2cc(-c3cn4ccsc4n3)c(=O)oc12`, with 75.9 µM.
Still for that read-out and setting: then `COc1ccc(N/N=C2\CCOc3ccc(C)cc3C2=O)cc1`, with 80.4 µM; and `COC(=O)c1c(C)cccc1C1CN=NC12Cc1ccc(C)cc1C2=O` (stereo unspecified), with 78.5 µM; and `ClCCN1CCC2(CC1)SSC1(CCN(CCCl)CC1)S2`, with 71 µM.
The same measure, in the same setting: then `C=CC1(C)CCC2C(=CCC3C2(C)CC(O)C(O)C3(C)COC2OC(C(=O)O)C(O)C(O)C2O)C1` (stereo unspecified) (tested in a mixture with another compound), with above 100 µM; and `C=C1C(=O)O[C@@H]2C(=O)[C@@H](C)CCC/C(C)=C/CC[C@@]3(C)O[C@@H]3C[C@@H]12`, with above 100 µM; and `Nc1nc(SCCc2ccccc2)c2[nH]cnc2n1`, with above 100 µM.
As to `Cc1ccccc1C(=O)N1CCc2c([nH]c3ccccc23)C1`, the TGI is 31.6 µM.
The same measure, in the same setting: then `Cc1nc2n(c1/C=C1/C(=O)Nc3cccc(Cl)c31)CCS2`, with above 100 µM; and `O=C1CC(NC(=O)C(F)(F)F)c2c(Br)sc(N3CCNCC3)c21` (stereo unspecified), with above 100 µM.

The subject of a further assay is MDA-MB-231 breast. Description: inhibition of tumour cell growth, NCI panel, 48 h.
Molecule `CC(=O)NC(Cc1ccc(O)cc1)C(=O)O` (stereo unspecified) displayed a TGI above 100 µM.
On the same count and under the same terms, then `O=C1CSC(c2ccc(Cl)cc2)N1c1ccc(Oc2ccc(Cl)cc2)c(Cl)c1` (stereo unspecified), with 30.7 µM; and `COC(=O)C([C@H](NC1(c2ccccc2)c2ccccc2-c2ccccc21)C(=O)OC)N(NC(=O)OCc1ccccc1)C(=O)OCc1ccccc1` (mixture of isomers), with above 100 µM; and `CC[C@@H]1CC[C@@H]2[C@H](CC[C@]3(C)[C@@H](OC(C)=O)CC[C@@H]23)[C@H]1COC(C)=O`, with 56.6 µM.
Still for that read-out and setting: to `Cc1ccc(N=NC(=Nc2ccccc2)c2ccc(N(CCC#N)CCC#N)cc2)cc1` belongs 55.8 µM; to `O=c1ccc(-c2ccccc2)n[nH]1`, above 100 µM.
Same read-out and setting: then `CC(=O)O[C@@H]1[C@H](C(C)C)[C@@H](OC(C)=O)C/C(C)=C/CC[C@]2(C)O[C@@H]12`, with above 100 µM; and `CN1CCc2cc(N)cc3c2C1Cc1ccc(O)c(O)c1-3` (stereo unspecified), with above 100 µM.
The molecule `CC(C)=CCc1c2c(c3occ(-c4ccc(O)cc4)c(=O)c3c1O)CC(C(C)(C)O)O2` (stereo unspecified) had a TGI of 27.6 µM.
Same read-out and setting: then `CC1(C)N=[N+]([O-])C1(C)C`, with above 100 µM.
In the case of `COc1ccc(C2CC(c3c(O)ccc4ccccc34)=NN2C(C)=O)cc1OC` (stereo unspecified), the TGI stood at 56.5 µM.
As to `C1CN(c2nc3c(nnc4nc(N5CCOCC5)sc43)s2)CCO1`, the TGI was above 100 µM.
The molecule `COc1cc2nc3n(c(=O)c2cc1OC)-c1ccc([N+](=O)[O-])cc1C3=O` displayed a TGI above 100 µM.
The same measure, in the same setting: to `NC(N)=N/N=C/c1c(-c2ccc(N)cc2)nc2sccn12` belongs 48.4 µM.
On the same count and under the same terms, then `COc1cc(Br)cc2cc(-c3cn4ccsc4n3)c(=O)oc12`, with 80.9 µM; and `COc1ccc(N/N=C2\CCOc3ccc(C)cc3C2=O)cc1`, with above 100 µM; and `COC(=O)c1c(C)cccc1C1CN=NC12Cc1ccc(C)cc1C2=O` (stereo unspecified), with above 100 µM.
The same measure, in the same setting: to `ClCCN1CCC2(CC1)SSC1(CCN(CCCl)CC1)S2` belongs above 100 µM; to `C=CC1(C)CCC2C(=CCC3C2(C)CC(O)C(O)C3(C)COC2OC(C(=O)O)C(O)C(O)C2O)C1` (stereo unspecified) (tested in a mixture with another compound), above 100 µM.
As for `C=C1C(=O)O[C@@H]2C(=O)[C@@H](C)CCC/C(C)=C/CC[C@@]3(C)O[C@@H]3C[C@@H]12`, the TGI was above 100 µM.
For `Nc1nc(SCCc2ccccc2)c2[nH]cnc2n1`, the TGI was above 100 µM.
Still for that read-out and setting: to `Cc1ccccc1C(=O)N1CCc2c([nH]c3ccccc23)C1` belongs 34.1 µM; to `Cc1nc2n(c1/C=C1/C(=O)Nc3cccc(Cl)c31)CCS2`, 52.5 µM.
With `O=C1CC(NC(=O)C(F)(F)F)c2c(Br)sc(N3CCNCC3)c21` (stereo unspecified), the TGI is above 100 µM.

The next assay deals with MDA-MB-435. As to the kind of experiment: inhibition of tumour cell growth, NCI panel, 48 h.
`CC(=O)NC(Cc1ccc(O)cc1)C(=O)O` (stereo unspecified) had a TGI above 100 µM.
The same measure, in the same setting: to `O=C1CSC(c2ccc(Cl)cc2)N1c1ccc(Oc2ccc(Cl)cc2)c(Cl)c1` (stereo unspecified) belongs 39 µM; to `COC(=O)C([C@H](NC1(c2ccccc2)c2ccccc2-c2ccccc21)C(=O)OC)N(NC(=O)OCc1ccccc1)C(=O)OCc1ccccc1` (mixture of isomers), above 100 µM.
Still for that read-out and setting: then `CC[C@@H]1CC[C@@H]2[C@H](CC[C@]3(C)[C@@H](OC(C)=O)CC[C@@H]23)[C@H]1COC(C)=O`, with 50.2 µM; and `Cc1ccc(N=NC(=Nc2ccccc2)c2ccc(N(CCC#N)CCC#N)cc2)cc1`, with above 100 µM; and `O=c1ccc(-c2ccccc2)n[nH]1`, with above 100 µM.
In the case of `CC(=O)O[C@@H]1[C@H](C(C)C)[C@@H](OC(C)=O)C/C(C)=C/CC[C@]2(C)O[C@@H]12`, the TGI was above 100 µM.
For `CN1CCc2cc(N)cc3c2C1Cc1ccc(O)c(O)c1-3` (stereo unspecified), the TGI was above 100 µM.
`CC(C)=CCc1c2c(c3occ(-c4ccc(O)cc4)c(=O)c3c1O)CC(C(C)(C)O)O2` (stereo unspecified) displayed a TGI of 30.5 µM.
Same read-out and setting: to `CC1(C)N=[N+]([O-])C1(C)C` belongs above 100 µM; to `COc1ccc(C2CC(c3c(O)ccc4ccccc34)=NN2C(C)=O)cc1OC` (stereo unspecified), 69.2 µM; to `C1CN(c2nc3c(nnc4nc(N5CCOCC5)sc43)s2)CCO1`, above 100 µM.
